In PMC12111156, “Nitazoxanide Analogs: Synthesis, In Vitro Giardicidal Activity, and Effects on Giardia lamblia Metabolic Gene Expression” (International Journal of Molecular Sciences, 2025):

Tests used:
Caco-2 and HT-29 cells = assay: Cytotoxicity, XTT viability assay, stated for both cell lines; type: cell-based, human; conditions: 125 µM, 48 h
Description: The suspension was added to a 96-well plate. […] Cell viability was determined using the following steps.

HT-29 cells = assay: Cytotoxicity, XTT viability assay, HT-29; conditions: CC50 HT-29 / IC50 trophozoite ATCC strain 30957
Description: (§1) The cytotoxicity assay was performed to evaluate the effect of the selected compounds on human cells. Colon cells were used because they are cell lines like those present in the microenvironment where G. lamblia colonizes, which is the small intestine of the host. The assay was performed using the human cell lines Caco-2 (ATCC HTB-37) and HT-29 (ATCC […]). Cell viability was determined using the Cell Proliferation Kit II (XTT, St. Louis, MO, EE. UU.). A cell suspension of 2 × 10^3 cells/mL was prepared in Dulbecco’s modified Eagle’s medium (DMEM) supplemented with 10% inactivated fetal bovine serum and an antibiotic (1% penicillin/streptomycin, 5000 U/mL, in a volume of 100 µL). The suspension was added to a 96-well plate. The plates were incubated for 24 h at 37 °C in a 5% CO2 atmosphere. […] The cells were incubated for 48 h at 37 °C in a 5% CO2 atmosphere. Cell viability was determined using the following steps. The medium in each well was replaced with 100 µL of fresh medium, and 50 µL of XTT labeling mix was added per well. The reaction was incubated for four hours at 37 °C and 5% CO2. After incubation, the absorbance of the samples on the plate was measured at 450 nm. Each compound was assayed in triplicate in three independent experiments. CC50 values (μM) were determined using the nonlinear regression function of GraphPad Prism version 8 for Windows.

[1] = Cytotoxicity, XTT viability assay, HT-29; conditions: human, HT-29 cells, CC50 HT-29, 48 h, XTT
Description: as §1

[2] = tested on: G. lamblia strain ATCC 30957; assay: Viability of Giardia lamblia trophozoite culture (trypan blue count); type: cell-based
Description: Viability analysis was performed on G. lamblia strain ATCC 30957 grown in TYI-S-33 medium supplemented with 10% fetal bovine serum (FBS) and an antibiotic. Pre-culture was performed in 16 × 150 mm borosilicate tubes with a medium inoculated with 2 × 10^5 trophozoites and incubated at 37 °C for 48 h. For the recovery of the trophozoites, the vial was incubated in ice for 8 min and centrifuged for 6 min at 2000 rpm. The concentrated trophozoites were suspended in 1 mL of phosphate-buffered saline (PBS), and the number of trophozoites was counted by placing a 1:1 volume ratio of cell culture and trypan blue dye (4 g/L); then, a homogeneous drop of the mixture was taken and placed in the Neubauer chamber, and the total cells were counted.
The curves were plotted for concentrations of 0–50 µM of each compound. The assay was performed by placing 1.5 × 10^5 cells in 1.5 mL microcentrifuge tubes with a supplemented medium and different concentrations of each compound (0–50 µM). The negative control was performed under the same conditions without a compound, and the drugs NTZ and MTZ were used as positive controls. The samples were incubated for 48 h at 37 °C. At the end of the incubation, the cell viability count was performed using the trypan blue technique. The viability calculation was performed following the formula nv/(nv + nm), where nv represents the live cells and nm represents the dead cells; the viability value obtained was expressed as a percentage. The IC50 value of each compound was determined using the IC50 Calculator software (https://www.aatbio.com/tools/ic50-calculator).

CCCCC(=O)Nc1ncc([N+](=O)[O-])s1 [FLP-2, N-(5-Nitro-1,3-thiazol-2-yl)pentanamide]
Decrease of cell viability (Caco-2 and HT-29 cells): up to 20% | Selectivity index (CC50/IC50) HT-29 (HT-29 cells): 531 | CC50 at 48 h [1]: 1.91 mM | Inhibition of growth of G. lamblia parasite culture ([2]; concentration not given): more than 98% | Relative potency compared with NTZ ([2]; ratio of IC50 values, ATCC strain): 1.2 times
